Measured values as given in PubChem BioAssay AID330 (DTP/NCI, 2004).
“And” between values parts separate entries of the source, which are not always exact repeats. Equal entries are not always repeated. Toxic doses and inconclusive results are not listed. Rule for the calls: active = survival T/C of 150% or more; inactive = T/C below 125% in these data.

Tested on: P388 leukemia ip, CD2F1 mice, survival T/C
Experiment: NCI In Vivo Anticancer Drug Screen. Data for tumor model P388 Leukemia (intraperitoneal) in CD2F1 (CDF1) mice
Details: endpoint: median survival time, higher = longer survival
Experimental: The antitumor activity of compounds was measured in mice bearing transplantable tumors. Survival or tumor size were measured and the results are expressed as the measurement made in the treated group (T) divided by the measurement made in the vehicle treated control group (C). The tumor model used in this assay is P388 Leukemia (intraperitoneal) in CD2F1 (CDF1) mice

[1] = dose: 100.0 mg/kg/injection, schedule: Q04DX003 (ip), vehicle: saline
[2] = dose: 200.0 mg/kg/injection, schedule: Q04DX003 (ip), vehicle: saline
[3] = dose: 50.0 mg/kg/injection, schedule: Q01DX009 (ip), vehicle: saline with Tween-80
[4] = dose: 100.0 mg/kg/injection, schedule: Q01DX009 (ip), vehicle: saline with Tween-80
[5] = dose: 200.0 mg/kg/injection, schedule: Q01DX009 (ip), vehicle: saline with Tween-80
[6] = dose: 60.0 mg/kg/injection, schedule: Q01DX005 (ip), vehicle: saline
[7] = dose: 120.0 mg/kg/injection, schedule: Q01DX005 (ip), vehicle: saline
[8] = dose: 240.0 mg/kg/injection, schedule: Q01DX005 (ip), vehicle: saline
[9] = dose: 25.0 mg/kg/injection, schedule: Q01DX009 (ip), vehicle: Klucel (hydroxypropylcellulose) (HPC)
[10] = dose: 50.0 mg/kg/injection, schedule: Q01DX005 (ip), vehicle: saline with Tween-80
[11] = dose: 100.0 mg/kg/injection, schedule: Q01DX005 (ip), vehicle: saline with Tween-80
[12] = dose: 200.0 mg/kg/injection, schedule: Q01DX005 (ip), vehicle: saline with Tween-80
[13] = dose: 50.0 mg/kg/injection, schedule: Q01DX001 (ip), vehicle: saline with Tween-80
[14] = dose: 100.0 mg/kg/injection, schedule: Q01DX001 (ip), vehicle: saline with Tween-80
[15] = dose: 200.0 mg/kg/injection, schedule: Q01DX001 (ip), vehicle: saline with Tween-80
[16] = dose: 50.0 mg/kg/injection, schedule: Q01DX005 (ip), vehicle: Klucel (hydroxypropylcellulose) (HPC)
[17] = dose: 100.0 mg/kg/injection, schedule: Q01DX005 (ip), vehicle: Klucel (hydroxypropylcellulose) (HPC)
[18] = dose: 200.0 mg/kg/injection, schedule: Q01DX005 (ip), vehicle: Klucel (hydroxypropylcellulose) (HPC)
[19] = dose: 50.0 mg/kg/injection, schedule: Q01DX005 (ip), vehicle: saline
[20] = dose: 100.0 mg/kg/injection, schedule: Q01DX005 (ip), vehicle: saline
[21] = dose: 200.0 mg/kg/injection, schedule: Q01DX005 (ip), vehicle: saline
[22] = dose: 400.0 mg/kg/injection, schedule: Q01DX005 (ip), vehicle: saline

Measured: T/C

COC(=O)[C@@]12OC[C@]34C([C@@H](O)C1O)[C@@]1(C)CC(=O)C(OS(=O)(=O)C(F)(F)F)=C(C)C1C[C@H]3OC(=O)[C@H](OC(=O)/C=C(\C)C(C)C)[C@H]42 (stereo partly drawn)
inactive: dose: 0.25 mg/kg/injection, schedule: Q01DX005 (ip), vehicle: DMSO 101 % of control | dose: 0.5 mg/kg/injection, schedule: Q01DX005 (ip), vehicle: DMSO 108 % of control | dose: 1.0 mg/kg/injection, schedule: Q01DX005 (ip), vehicle: DMSO 109 % of control and 97 % of control | dose: 2.0 mg/kg/injection, schedule: Q01DX005 (ip), vehicle: DMSO 107 % of control and 118 % of control | dose: 4.0 mg/kg/injection, schedule: Q01DX005 (ip), vehicle: DMSO 107 % of control | dose: 8.0 mg/kg/injection, schedule: Q01DX005 (ip), vehicle: DMSO 115 % of control

COC(=O)/C=C(\Cl)C(=O)OC
inactive: dose: 0.62 mg/kg/injection, schedule: Q01DX009 (ip), vehicle: saline with Tween-80 101 % of control | dose: 1.25 mg/kg/injection, schedule: Q01DX009 (ip), vehicle: saline with Tween-80 101 % of control | dose: 2.5 mg/kg/injection, schedule: Q01DX009 (ip), vehicle: saline with Tween-80 105 % of control | dose: 5.0 mg/kg/injection, schedule: Q01DX009 (ip), vehicle: saline with Tween-80 102 % of control | dose: 10.0 mg/kg/injection, schedule: Q01DX009 (ip), vehicle: saline with Tween-80 105 % of control

O=c1sc2ncccc2n1-c1ccc([N+](=O)[O-])cn1
inactive: [1] 103 % of control | [2] 86 % of control | dose: 400.0 mg/kg/injection, schedule: Q04DX003 (ip), vehicle: saline 89 % of control

O=C1/C(=C/c2ccccc2[N+](=O)[O-])Cc2ccccc21
inactive: [3] 103 % of control | [4] 94 % of control | [5] 103 % of control | dose: 400.0 mg/kg/injection, schedule: Q01DX009 (ip), vehicle: saline with Tween-80 97 % of control

CO[C@@H]1[C@@H](O)c2ccccc2N1C(C)=O
inactive: [6] 104 % of control | [7] 102 % of control | [8] 104 % of control

CCCCOB(OCCCC)C(C)C(C#N)C#N (stereo not drawn)
inactive: dose: 50.0 mg/kg/injection, schedule: Q04DX003 (ip), vehicle: saline 92 % of control | [1] 92 % of control | [2] 96 % of control

CN(C)CC/C=C1/c2ccccc2C=Nc2ccc(Cl)cc21
inactive: dose: 6.25 mg/kg/injection, schedule: Q01DX009 (ip), vehicle: Klucel (hydroxypropylcellulose) (HPC) 116 % of control | dose: 12.5 mg/kg/injection, schedule: Q01DX009 (ip), vehicle: Klucel (hydroxypropylcellulose) (HPC) 108 % of control | [9] 99 % of control

CCOCCOCCOC(C)OC(C)Cc1ccc2c(c1)OCO2 (stereo not drawn)
inactive: [10] 106 % of control | [11] 95 % of control | [12] 112 % of control

NC(Cc1ccccc1)=S=O
inactive: dose: 100.0 mg/kg/injection, schedule: Q04DX002 (ip), vehicle: Klucel (hydroxypropylcellulose) (HPC) 97 % of control | dose: 200.0 mg/kg/injection, schedule: Q04DX002 (ip), vehicle: Klucel (hydroxypropylcellulose) (HPC) 95 % of control

Cc1ccnc(-n2c(N)cc(=O)[nH]c2=S)c1
inactive: [13] 86 % of control | [14] 118 % of control | [15] 100 % of control

NC(CSC1c2ccccc2-c2ccccc21)C(=O)O (stereo not drawn)
inactive: dose: 60.0 mg/kg/injection, schedule: Q01DX005 (ip), vehicle: saline with Tween-80 90 % of control | dose: 120.0 mg/kg/injection, schedule: Q01DX005 (ip), vehicle: saline with Tween-80 98 % of control | dose: 240.0 mg/kg/injection, schedule: Q01DX005 (ip), vehicle: saline with Tween-80 92 % of control

Cc1nc(Nc2c(C)cccc2C)c2c(-c3ccccc3)c[nH]c2n1
inactive: [16] 99 % of control | [17] 94 % of control | [18] 92 % of control

COc1cc(NC(=O)c2ccc(NC(=O)c3ccc(N)cc3)cc2)c(OC)cc1N=Nc1ccc(N=Nc2ccc3cc(S(=O)(=O)O)cc(S(=O)(=O)O)c3c2)c(C)c1
inactive: [19] 106 % of control (2×) and 111 % of control | [20] 106 % of control and 109 % of control and 115 % of control | [21] 114 % of control and 115 % of control and 123 % of control | [22] 116 % of control and 117 % of control

O=c1[nH]cnc2c1nnn2C1OC(CO)C(O)C1O (stereo not drawn)
inactive: dose: 25.0 mg/kg/injection, schedule: Q01DX005 (ip), vehicle: saline 102 % of control and 105 % of control | [19] 107 % of control and 111 % of control | [20] 114 % of control and 118 % of control | [21] 111 % of control and 116 % of control | [22] 100 % of control

CN1C(=O)NC2(C1=O)C(=O)N(C)C(=O)N2C (stereo not drawn)
inactive: dose: 50.0 mg/kg/injection, schedule: Q01DX009 (ip), vehicle: saline 91 % of control | dose: 100.0 mg/kg/injection, schedule: Q01DX009 (ip), vehicle: saline 92 % of control | dose: 200.0 mg/kg/injection, schedule: Q01DX009 (ip), vehicle: saline 95 % of control

O=C(CC([Se]c1ccccc1)c1ccccc1)c1ccccc1 (stereo not drawn)
inactive: [3] 109 % of control | [4] 109 % of control | [5] 95 % of control

O=[N+]([O-])CC(O)C(Cl)(Cl)Cl (stereo not drawn)
inactive: dose: 50.0 mg/kg/injection, schedule: Q01DX001 (ip), vehicle: saline 107 % of control | dose: 100.0 mg/kg/injection, schedule: Q01DX001 (ip), vehicle: saline 107 % of control | dose: 200.0 mg/kg/injection, schedule: Q01DX001 (ip), vehicle: saline 107 % of control

COP(=O)(CC(=O)CCCCCO[Si](C)(C)C(C)(C)C)OC
inactive: [6] 98 % of control | [7] 99 % of control | [8] 100 % of control

CCOC(=O)c1cc(-c2ccccc2)c(OC)c(=O)nc1-c1ccccc1
inactive: dose: 25.0 mg/kg/injection, schedule: Q01DX005 (ip), vehicle: saline with Tween-80 100 % of control | [10] 100 % of control | [11] 100 % of control | [12] 112 % of control

O=C1C(CO)NC(=S)N1c1ccccc1 (stereo not drawn)
inactive: dose: 12.5 mg/kg/injection, schedule: Q01DX001 (ip), vehicle: saline with Tween-80 109 % of control | dose: 25.0 mg/kg/injection, schedule: Q01DX001 (ip), vehicle: saline with Tween-80 102 % of control | [13] 97 % of control | [14] 105 % of control | [15] 102 % of control

NC(=O)NN=C(C1CC1)C1CC1
inactive: dose: 3.12 mg/kg/injection, schedule: Q01DX005 (ip), vehicle: Klucel (hydroxypropylcellulose) (HPC) 115 % of control | dose: 6.25 mg/kg/injection, schedule: Q01DX005 (ip), vehicle: Klucel (hydroxypropylcellulose) (HPC) 98 % of control | dose: 12.5 mg/kg/injection, schedule: Q01DX005 (ip), vehicle: Klucel (hydroxypropylcellulose) (HPC) 104 % of control | [16] 99 % of control

C[C@]12CCC[C@@H]3C[C@@]31C[C@@H]([C@@]1(C)CO1)CC2
inactive: [9] 98 % of control and 91 % of control | dose: 50.0 mg/kg/injection, schedule: Q01DX009 (ip), vehicle: Klucel (hydroxypropylcellulose) (HPC) 102 % of control and 106 % of control | dose: 100.0 mg/kg/injection, schedule: Q01DX009 (ip), vehicle: Klucel (hydroxypropylcellulose) (HPC) 102 % of control and 104 % of control and 88 % of control | dose: 200.0 mg/kg/injection, schedule: Q01DX009 (ip), vehicle: Klucel (hydroxypropylcellulose) (HPC) 100 % of control and 120 % of control

NNC(=O)C(O)C(O)C(=O)NN (stereo not drawn)
inactive: dose: 30.0 mg/kg/injection, schedule: Q01DX005 (ip), vehicle: saline 97 % of control | dose: 30.0 mg/kg/injection, schedule: Q01DX009 (ip), vehicle: saline 103 % of control | [6] 100 % of control | dose: 60.0 mg/kg/injection, schedule: Q01DX009 (ip), vehicle: saline 97 % of control | [7] 94 % of control | dose: 120.0 mg/kg/injection, schedule: Q01DX009 (ip), vehicle: saline 105 % of control

CC1(C)CC(NCCN)=CC(=S)N1
inactive: [16] 98 % of control | [17] 98 % of control | [18] 104 % of control
